From publication PMC11959706, “Allatostatin-C signaling in the crab Carcinus maenas is implicated in the ecdysis program” (The Journal of Experimental Biology, 2025)
Entries after “also recorded” stand apart in the source; their conditions may differ. Bridge positions count the residues as written; N and C are the ends. Ends that are not written are not given here.

Key:
AST-CRd (TR71151) = assay: Aequorin luminescence receptor assay, CHO-K1-Aeq-Gα16 cells transiently expressing AST-CRd; type: cell-based, Carcinus maenas
From the text: (§1) The transcriptome of neural tissue of C. maenas, which has been previously assembled ([Oliphant et al., 2018]), identified four putative AST-C receptor candidates: TR71151a-d ([Oliphant et al., 2018]). These were chemically synthesized with a modified 5′ Kozak sequence (GAATTCGCCACC) and cloned in frame into a pcDNA3.1(+) plasmid vector (Genscript, Piscataway, NJ, USA). Separate aliquots of OneShot TOP10® E. coli cells (Invitrogen, Paisley, UK) were transformed with the plasmids and grown on LB plates containing 100 µg ml^−1 ampicillin overnight at 37°C. Positive clones were cultured overnight in LB broth with 100 µg ml^−1 ampicillin at 37°C and plasmids extracted using a Qiagen Plasmid Midiprep kit according to the manufacturer's instructions. Purified plasmids were re-sequenced (MWG Eurofins, Ebersberg, Germany) and analyzed using Geneious 9.1.8 ([Kearse et al., 2012]).
Chinese hamster ovary (CHO-K1) cells containing stably expressed apoaequorin (Perkin Elmer, Boston, MA) and either Gα16 or Gq subunit (control cells) were cultured in Dulbecco's Modified Eagle Medium (DMEM) F-12 Nutrient Mixture Glutamax (Gibco®) supplemented with 10% fetal bovine serum (Gibco®). Cells were maintained in vented T75 flasks at 37°C in 5% CO2. Cells grown in a monolayer to approximately 60% confluency were transfected with pcDNA 3.1 constructs using FugeneHD® (Promega) according to the manufacturer's recommendations. Transfection medium was prepared by combining 800 µl Opti-MEM® (Gibco) with 10 µg vector and the cells further incubated overnight. Cells were detached from the culture flask by incubating for 10 min in 5 ml 0.2% EDTA in PBS, washed in 10 ml clear DMEM–F-12 containing L-glutamine and 15 mmol l^−1 HEPES, centrifuged (for 5 min at 260 g) and resuspended at a concentration of 5×10^6 cells ml^−1 in 0.2 µm filtered BSA medium (DMEM–F-12 containing L-glutamine, 15 mmol l^−1 HEPES and 0.1% BSA). Coelenterazine h (Invitrogen, Paisley, UK) was added to give a concentration of 5 µmol l^−1, and the cells incubated in the dark at room temperature with gentle rocking. Before the assay, cells were further diluted (10-fold) and incubated for 60 min before use. Dried aliquots of peptides were reconstituted in BSA medium, and 50 µl added in quadruplicate to a white 96-well plate (Optiplate®, Perkin Elmer). Cell suspensions were gently stirred and injected (50 µl per well) using a Mithras LB 940 microplate reader (Berthold Technologies, Bad Wildbad, Germany) and light emission (Ca^2+ response recorded for 30 s). Cells were then lysed by injection of 50 µl per well 0.3% Triton-X in BSA medium, and light emission recorded for a further 10 s to measure total Ca^2+ response. BSA medium was used for blank measurements (six replicates per plate) and transfection with empty vectors was used for negative controls. Data were analyzed using Mikrowin 2010 v5 (Mikrotek Laborsysteme, Overath, Germany) and SigmaPlot v15 (Systat Software, Grafiti, Slough, UK).

[1] = test system: putative AST-C receptor candidates TR71151a-d other than AST-CR(d); assay: Aequorin luminescence receptor assay, other putative AST-C receptor candidates; type: cell-based, Carcinus maenas; conditions: each candidate transiently expressed in CHO-K1-Aeq cells; 1µM peptide (Fig. S3)
From the text: as §1, with “Positive clones were cultured overnight in LB broth with 100 µg ml^−1 ampicillin at 37°C and plasmids extracted using a Qiagen Plasmid Midiprep kit according to the manufacturer's instructions.” left out
Chinese hamster ovary (CHO-K1) cells containing stably expressed apoaequorin (Perkin Elmer, Boston, MA) and either Gα16 or Gq subunit (control cells) were cultured in Dulbecco's Modified Eagle Medium (DMEM) F-12 Nutrient Mixture Glutamax (Gibco®) supplemented with 10% fetal bovine serum (Gibco®). […] Cell suspensions were gently stirred and injected (50 µl per well) using a Mithras LB 940 microplate reader (Berthold Technologies, Bad Wildbad, Germany) and light emission (Ca^2+ response recorded for 30 s). Cells were then lysed by injection of 50 µl per well 0.3% Triton-X in BSA medium, and light emission recorded for a further 10 s to measure total Ca^2+ response. […]

[2] = test system: semi-isolated heart preparations; assay: Semi-isolated heart preparation bioassay; parameters: species or system Carcinus maenas; conditions: 10^−6 mol l^−1 in saline, 20°C, recorded about 2 min; four preparations
From the text: To determine possible myotropic and/or myoinhbitory activity of AST-C, AST-CC and AST-CCC, inter-molt crabs (∼65 mm carapace width) were ice-anaesthetized and rapidly decerebrated before removing all limbs and the dorsal carapace to expose the heart and pericardial cavity. The preparation was then fitted into a bowl lined with tissue, to provide a stable saline-flooded environment. The heart was connected to a force transducer (MLT0210/A) via a micro-fishing hook (size 28) and fine nylon (0.08 mm) monofilament. Connection to a PC with Chart 4.0 software was via a Bridge Pod (ML301) and Powerlab 4/20 (AD Instruments, Castle Hill, NSW, Australia). Transducer gain was set at maximum sensitivity (200 μV). Heart preparations were initially perfused with Carcinus physiological saline ([Saver et al., 1999]) at room temperature (20°C). Once a stable output was achieved, hearts were then perfused by sequentially adding approximately 2 ml saline containing AST-C, AST-CC and AST-CCC (GenScript Biotech, Piscataway, NJ, USA), and finally adding CCAP as a positive control (all peptides were at a concentration of 10^−6 mol l^−1 in saline). Each peptide addition was followed by extensive washout with saline, recording heart rate and beat amplitude for approximately 2 min after application of each peptide.

Y-organs = assay: Y-organ in vitro bioassay of ecdysteroid synthesis (ecdysteroid RIA); type: cell-based, Carcinus maenas; conditions: native MIH 2 nmol l^−1, 24 h incubation, positive control
Method: To determine the possible activity of AST-C and/or AST-CC on ecdysteroid synthesis, Y-organs (YOs) were dissected from ice-anaesthetized crabs and used in the in vitro bioassay as detailed previously ([Webster, 1986]). Following 24 h incubations, culture medium was aspirated and snap frozen in liquid nitrogen prior to ecdysteroid RIA. YOs were sonicated in PBS, centrifuged (13,000 g for 5 min at room temperature) and assayed for protein concentration using a BCA protein kit (EMD Millipore, Burlington MA, USA). Protein concentrations (BSA standards) were used to normalize ecdysteroid synthesis between YO pairs.
Ecdysteroid RIAs were performed on 20 µl aliquots of culture medium using the following conditions: 100 μl 1:2000 anti-ecdysteroid serum HB-2E (a kind gift from R. D Watson, Alabama University), 100 µl H^−3 Ponasterone A [24, 25, 26, 27-3H (N), 3.5 TBq mmol^−1 (American Radiochemical Company, St Louis, MO, USA)] at 28,000 dpm per tube. 25-Deoxyecdysone (a kind gift from Prof. R. Lafont, Sorbonne University, Paris) was used as a standard (range 2500–19.5 pg per tube), and unknowns and standards were assayed in triplicate. Bound was separated from free using 50 µl per tube immobilized donkey anti-rabbit nitrocellulose suspension (Sac-Cel), as detailed for the AST-C RIA. Pellets were resuspended in 600 µl Hi-Safe 3 (Perkin Elmer) prior to counting. Using this RIA, both ecdysone and 25-deoxyecdysone (the two ecdysteroids synthesized by C. maenas YOs) were equally recognized.

## AGCKNFFWKTFTSC [somatostatin, vertebrate homolog/paralog of AST-C, reference compound]
AST-CRd (TR71151); 10, 1 µmol l^−1 peptide, quadruplicate
  Activation of AST-CRd at saturating doses: failed to activate; also recorded: without effect

## SYWKQCAFNAVSCF-NH2 (disulfide 6-13 (inferred)) [AST-CCC, C. maenas AST-C family neuropeptide, C-terminally amidated; synthetic (GenScript)]
AST-CRd (TR71151); 10^−6 mol l^−1
  Activation of AST-CRd at extremely high doses: slight activation
AST-CRd (TR71151); peptide at 10 µmol l^−1, quadruplicate
  Luminescence response relative to the maximum response elicited by 10 µmol l^−1 AST-CC: less than 20%
[1]
  Activation of the other candidate AST-C receptors: not activated
[2]
  Effect on heartbeat amplitude: entirely unaffected
  Effect on heartbeat frequency (heart rate): entirely unaffected

## crustacean cardioactive peptide [CCAP, reference compound]
[2]
  Effect on heartbeat amplitude: increased amplitude
  Effect on heartbeat frequency (heart rate): more than doubled

## molt inhibiting hormone [reference compound]
Y-organs
  Effect on ecdysteroid synthesis by Y-organs: large inhibitory effect
Y-organs; listed as MIH
  Effect on ecdysteroid synthesis by Y-organs: full inhibition
